According to US4698338A, “7[2-(2-aminothiazol-4-yl)-2-benzyloximino]acetamido-3[4-al kyl-5-oxo-6-hydroxy-3,4-dihydro-1,2,4-triazin-3-yl]thiomethyl cephalosporins” (Eli Lilly and Company, priority 1986, dated 1987):
≈ marks a conversion by molar mass, not a printed value. Where two headings read alike, the source gives them in different places.

Tests used:
Assay in all cases: standard agar dilution in vitro test
Type in all cases: cell-based
[1] = tested on: Acinetobacter calcoaceticus AC12; conditions: read-out: Minimum Inhibitory Concentration
Text: (§1) The antibacterial activity of the compounds of the formula 1 is illustrated by the data presented in Table 2 for two such compounds. The data presented are the minimum inhibitory concentrations (μg/ml) against representative pathogens obtained in the standard agar dilution in vitro test.

[2] = tested on: Citrobacter freundii CF17; conditions: read-out: Minimum Inhibitory Concentration
Text: as §1

[3] = tested on: Enterobacter aerogenes C32; conditions: Klebsiella aerogenes, read-out: Minimum Inhibitory Concentration
Text: as §1

[4] = tested on: Enterobacter aerogenes EB17; conditions: Klebsiella aerogenes, read-out: Minimum Inhibitory Concentration
Text: as §1

[5] = tested on: Enterobacter cloacae 265A; conditions: read-out: Minimum Inhibitory Concentration
Text: as §1

Enterobacter cloacae EB5 = conditions: read-out: Minimum Inhibitory Concentration
Text: as §1

Escherichia coli EC14 = tested on: Escherichia coli EC14
Text: as §1

Escherichia coli N10 = conditions: read-out: Minimum Inhibitory Concentration
Text: as §1

Escherichia coli TEM = conditions: read-out: Minimum Inhibitory Concentration
Text: as §1

[6] = tested on: Haemophilus influenzae 76; conditions: read-out: Minimum Inhibitory Concentration
Text: as §1

[7] = tested on: Haemophilus influenzae C.L.; conditions: read-out: Minimum Inhibitory Concentration
Text: as §1

[8] = tested on: Klebsiella pneumoniae KAE; conditions: read-out: Minimum Inhibitory Concentration
Text: as §1

[9] = tested on: Klebsiella pneumoniae X26; conditions: read-out: Minimum Inhibitory Concentration
Text: as §1

[10] = tested on: Klebsiella pneumoniae X68
Text: as §1

Proteus inconstans PR33 = conditions: Providencia alcalifaciens
Text: as §1

Proteus morganii PR15 = conditions: Morganella morganii, read-out: Minimum Inhibitory Concentration
Text: as §1

Proteus rettgeri C24 = conditions: Providencia rettgeri
Text: as §1

[11] = tested on: Pseudomonas aeruginosa PS18; conditions: read-out: Minimum Inhibitory Concentration
Text: as §1

[12] = tested on: Pseudomonas aeruginosa PS72; conditions: read-out: Minimum Inhibitory Concentration
Text: as §1

[13] = tested on: Pseudomonas aeruginosa X239; conditions: read-out: Minimum Inhibitory Concentration
Text: as §1

[14] = tested on: Pseudomonas aeruginosa X528; conditions: read-out: Minimum Inhibitory Concentration
Text: as §1

Salmonella typhi 1335 = conditions: Salmonella enterica, read-out: Minimum Inhibitory Concentration
Text: as §1

Salmonella typhi X514 = conditions: Salmonella enterica, read-out: Minimum Inhibitory Concentration
Text: as §1

Serratia marcescens SE3 = conditions: read-out: Minimum Inhibitory Concentration
Text: as §1

Serratia marcescens X99 = conditions: read-out: Minimum Inhibitory Concentration
Text: as §1

Shigella sonnei N9 = conditions: read-out: Minimum Inhibitory Concentration
Text: as §1

[15] = tested on: Staphylococcus aureus 513E; conditions: read-out: Minimum Inhibitory Concentration
Text: as §1

[16] = tested on: Staphylococcus aureus V41; conditions: read-out: Minimum Inhibitory Concentration
Text: as §1

[17] = tested on: Staphylococcus aureus X1.1; conditions: read-out: Minimum Inhibitory Concentration
Text: as §1

[18] = tested on: Staphylococcus aureus X400; conditions: read-out: Minimum Inhibitory Concentration
Text: as §1

[19] = tested on: Staphylococcus epidermidis 222; conditions: read-out: Minimum Inhibitory Concentration
Text: as §1

[20] = tested on: Staphylococcus epidermidis EPi1; conditions: read-out: Minimum Inhibitory Concentration
Text: as §1

[21] = tested on: Streptococcus Group D 2041; conditions: GROUPD2041, read-out: Minimum Inhibitory Concentration
Text: as §1

[22] = tested on: Streptococcus Group D X66; conditions: read-out: Minimum Inhibitory Concentration
Text: as §1

[23] = tested on: Streptococcus pneumoniae Park I; conditions: read-out: Minimum Inhibitory Concentration
Text: as §1

[24] = tested on: Streptococcus pyogenes C203; conditions: read-out: Minimum Inhibitory Concentration
Text: as §1

`Cn1nc(O)c(=O)nc1SCC1=C(C(=O)O)N2C(=O)[C@@H](NC(=O)/C(=N\OCc3cc(Cl)ccc3Cl)c3csc(N)n3)[C@H]2SC1` [Test Compound B, 7β-[2-(2-Aminothiazol-4-yl)-2-(2,5-dichlorobenzyloxyimino)acetamido]-3-[(2,5-dihydro-6-hydroxy-2-methyl-5-oxo-1,2,4-triazin-3-yl)thiomethyl]-3-cephem-4-carboxylic acid] gave an MIC [1] of 2 µg/mL (≈ 2.86 µM), an MIC [2] of 2 µg/mL (≈ 2.86 µM) and an MIC [3] of 0.25 µg/mL (≈ 0.357 µM). It also gave an MIC [4] of 1 µg/mL (≈ 1.43 µM), an MIC [5] of 128 µg/mL (≈ 183 µM) and an MIC (Enterobacter cloacae EB5) of 0.25 µg/mL (≈ 0.357 µM). It also gave an MIC (Escherichia coli EC14; Escherichia coli EC14, agar dilution, read-out: Minimum Inhibitory Concentration) of 0.25 µg/mL (≈ 0.357 µM), an MIC (Escherichia coli N10) of 0.25 µg/mL (≈ 0.357 µM) and an MIC (Escherichia coli TEM) of 0.06 µg/mL (≈ 0.0858 µM). It also gave an MIC [6] of 0.015 µg/mL (≈ 0.0214 µM), an MIC [7] of 0.03 µg/mL (≈ 0.0429 µM) and an MIC [8] of 16 µg/mL (≈ 22.9 µM). The MIC [9] was 0.06 µg/mL (≈ 0.0858 µM), the MIC ([10]; Klebsiella pneumoniae X68, agar dilution, read-out: Minimum Inhibitory Concentration) was 0.25 µg/mL (≈ 0.357 µM) and the MIC (Proteus inconstans PR33; Proteus inconstans PR33, agar dilution, read-out: Minimum Inhibitory Concentration) was 0.25 µg/mL (≈ 0.357 µM). For the same compound, the MIC (Proteus morganii PR15) was 0.5 µg/mL (≈ 0.715 µM), the MIC (Proteus rettgeri C24; Proteus rettgeri C24, agar dilution, read-out: Minimum Inhibitory Concentration) was 0.5 µg/mL (≈ 0.715 µM) and the MIC [11] was 32 µg/mL (≈ 45.7 µM). It also gave an MIC [12] of 16 µg/mL (≈ 22.9 µM), an MIC [13] of 8 µg/mL (≈ 11.4 µM) and an MIC [14] of 64 µg/mL (≈ 91.5 µM). For the same compound, the MIC (Salmonella typhi 1335) was 1 µg/mL (≈ 1.43 µM), the MIC (Salmonella typhi X514) was 0.25 µg/mL (≈ 0.357 µM) and the MIC (Serratia marcescens SE3) was 2 µg/mL (≈ 2.86 µM). For the same compound, the MIC (Serratia marcescens X99) was 1 µg/mL (≈ 1.43 µM), the MIC (Shigella sonnei N9) was 0.5 µg/mL (≈ 0.715 µM) and the MIC [15] was 4 µg/mL (≈ 5.72 µM). The MIC [16] was 4 µg/mL (≈ 5.72 µM), the MIC [17] was 0.5 µg/mL (≈ 0.715 µM) and the MIC [18] was 32 µg/mL (≈ 45.7 µM). The MIC [19] was 0.5 µg/mL (≈ 0.715 µM), the MIC [20] was 8 µg/mL (≈ 11.4 µM) and the MIC [21] was 0.5 µg/mL (≈ 0.715 µM). The MIC [22] was greater than 128 µg/mL, the MIC [23] was less than 0.008 µg/mL and the MIC [24] was less than 0.008 µg/mL.

With `Cn1nc(O)c(=O)nc1SCC1=C(C(=O)O)N2C(=O)[C@@H](NC(=O)/C(=N\OCc3ccc(O)cc3)c3csc(N)n3)[C@H]2SC1` [Test Compound A, 7β-[2-(2-Aminothiazol-4-yl)-2-(4-hydroxybenzyloxyimino)acetamido]-3-[(2,5-dihydro-6-hydroxy-2-methyl5-oxo-1,2,4-triazin-3-yl)thiomethyl]-3-cephem-4carboxylic acid] the MIC [1] was 16 µg/mL (≈ 24.7 µM), the MIC [2] was 4 µg/mL (≈ 6.19 µM) and the MIC [3] was 0.25 µg/mL (≈ 0.387 µM). For the same compound, the MIC [4] was 0.5 µg/mL (≈ 0.773 µM), the MIC [5] was 128 µg/mL (≈ 198 µM) and the MIC (Enterobacter cloacae EB5) was 0.5 µg/mL (≈ 0.773 µM). For the same compound, the MIC (Escherichia coli EC14; Escherichia coli, EC14, read-out: Minimum Inhibitory Concentration) was 0.125 µg/mL (≈ 0.193 µM), the MIC (Escherichia coli N10) was 0.25 µg/mL (≈ 0.387 µM) and the MIC (Escherichia coli TEM) was 0.03 µg/mL (≈ 0.0464 µM). For the same compound, the MIC [7] was 0.03 µg/mL (≈ 0.0464 µM), the MIC [8] was 16 µg/mL (≈ 24.7 µM) and the MIC [9] was 0.06 µg/mL (≈ 0.0928 µM). It also gave an MIC ([10]; Klebsiella pneumoniae, X68, read-out: Minimum Inhibitory Concentration) of 0.125 µg/mL (≈ 0.193 µM), an MIC (Proteus inconstans PR33; PR33, read-out: Minimum Inhibitory Concentration) of 0.125 µg/mL (≈ 0.193 µM) and an MIC (Proteus morganii PR15) of 1 µg/mL (≈ 1.55 µM). For the same compound, the MIC (Proteus rettgeri C24; C24, read-out: Minimum Inhibitory Concentration) was 0.125 µg/mL (≈ 0.193 µM), the MIC [11] was 16 µg/mL (≈ 24.7 µM) and the MIC [12] was 64 µg/mL (≈ 99 µM). The MIC [13] was 8 µg/mL (≈ 12.4 µM), the MIC [14] was 128 µg/mL (≈ 198 µM) and the MIC (Salmonella typhi 1335) was 0.25 µg/mL (≈ 0.387 µM). The MIC (Salmonella typhi X514) was 0.125 µg/mL (≈ 0.193 µM), the MIC (Serratia marcescens SE3) was 4 µg/mL (≈ 6.19 µM) and the MIC (Serratia marcescens X99) was 0.5 µg/mL (≈ 0.773 µM). The MIC (Shigella sonnei N9) was 0.125 µg/mL (≈ 0.193 µM), the MIC [15] was 8 µg/mL (≈ 12.4 µM) and the MIC [16] was 8 µg/mL (≈ 12.4 µM). For the same compound, the MIC [17] was 1 µg/mL (≈ 1.55 µM), the MIC [18] was 16 µg/mL (≈ 24.7 µM) and the MIC [19] was 2 µg/mL (≈ 3.09 µM). For the same compound, the MIC [20] was 8 µg/mL (≈ 12.4 µM), the MIC [21] was 1 µg/mL (≈ 1.55 µM) and the MIC [22] was 128 µg/mL (≈ 198 µM). It also gave an MIC [23] of less than 0.008 µg/mL and an MIC [24] of less than 0.008 µg/mL.
